Patent US20260217701A1, “SELECTIVE BET INHIBITORS AND USES THEREOF” (Tay Therapeutics Limited, priority 2022, published 2026)
Where “and” joins values, the source holds several entries; their conditions need not be identical. Identical values can stand only once. Marks after values point to notes of the source that are not given here.

Legend:
[1] = CIA study: animal body weight; conditions: for Average animal body weight percent change: CIA; for Animal body weight percent change (%): Group 3 (CIA + Dexamethasone), individual animals
anti-collagen IgG1 = assay: CIA model: rat anti-collagen IgG1 levels; format: in vivo, Lewis rats; design: Average rat anti-collagen IgG1 levels, Mean: unit not given here; conditions: Group 3 (CIA + Dexamethasone)

## C[C@@H]1C[C@H]2[C@@H]3CCC4=CC(=O)C=C[C@]4(C)[C@@]3(F)[C@@H](O)C[C@]2(C)[C@@]1(O)C(=O)CO [Dexamethasone, dexamethasone]
[1]; Day 0
  Average animal body weight percent change: 0.00%
  Animal body weight percent change (%): 0.00%
[1]; Day 1
  Average animal body weight percent change: −2.80%
  Animal body weight percent change (%): 0.66% and −7.41% and −1.72% and −2.37% and 1.20% and −6.21%
[1]; Day 2
  Average animal body weight percent change: −3.22%
  Animal body weight percent change (%): −0.66% and −6.79% and 1.15% and −1.78% and −3.01% and −8.07%
[1]; Day 3
  Average animal body weight percent change: −4.37%
  Animal body weight percent change (%): −1.99% and 11.11% and 0.57% and −2.96% and −2.41% and −9.94%
[1]; Day 4
  Average animal body weight percent change: −4.95%
  Animal body weight percent change (%): −2.65% and −9.26% and −2.30% and −5.33% and −6.02%
[1]; Day 5
  Average animal body weight percent change: −4.95%
  Animal body weight percent change (%): −2.65% and −8.02% and −5.17% and −2.96% and −4.82%
[1]; Day 6
  Average animal body weight percent change: −4.41%
  Animal body weight percent change (%): −2.65% and 6.17% and −1.72% and −4.73% and −6.63%
[1]; Day 7
  Average animal body weight percent change: −3.35%
  Animal body weight percent change (%): −0.66% and −5.56% and 2.30% and −4.14% and −3.61%
[1]; Day 8
  Average animal body weight percent change: −3.90%
[1]; Day 9
  Average animal body weight percent change: −1.84%
[1]; Day 10
  Average animal body weight percent change: −2.30%
[1]; Day 11
  Average animal body weight percent change: −1.24%
[1]; Day 12
  Average animal body weight percent change: −1.18%
[1]; Day 13
  Average animal body weight percent change: −0.91%
[1]; Day 14
  Average animal body weight percent change: −1.24%
[1]; Day 15
  Average animal body weight percent change: 0.43%
  Animal body weight percent change (%): 9.93% and −3.09% and 2.30% and 0.59% and 1.20% and −6.83% and 2.33% and −0.63%
[1]; Day 16
  Average animal body weight percent change: −0.57%
  Animal body weight percent change (%): 3.97% and −5.56% and 7.47% and −0.59% and −4.22% and −8.70% and 1.16% and 1.88%
[1]; Day 17
  Average animal body weight percent change: 0.62%
  Animal body weight percent change (%): 5.96% and −4.32% and 8.05% and −2.37% and 0.60% and −6.83% and −1.16% and 5.00%
[1]; Day 18
  Average animal body weight percent change: 1.02%
  Animal body weight percent change (%): 3.97% and −6.17% and 8.62% and −2.37% and 0.00% and −5.59% and 4.07% and 5.63%
[1]; Day 19
  Average animal body weight percent change: 1.53%
  Animal body weight percent change (%): 7.28% and −9.26% and 10.34% and 0.59% and 1.20% and −5.59% and 5.81% and 1.88%
[1]; Day 20
  Average animal body weight percent change: 1.66%
  Animal body weight percent change (%): 7.95% and −3.70% and 5.75% and 2.37% and 0.60% and 4.35% and 4.65% and 0.00%
[1]; Day 21
  Average animal body weight percent change: 1.30%
  Animal body weight percent change (%): 8.61% and −3.70% and 7.47% and 0.00% and −3.01% and −5.59% and 2.91% and 3.75%
anti-collagen IgG1
  Average rat anti-collagen IgG1 levels, Mean: 7833.69*
